Test results published in paper PMC9090415, “Discovery of small molecule inhibitors of Plasmodium falciparum apicoplast DNA polymerase” (Journal of Enzyme Inhibition and Medicinal Chemistry, 2022).

Molecular target: P. falciparum apicoplast DNA polymerase (Pf-apPOL) (Plasmodium falciparum, UniProt Q8ILY1)
Assay: Fluorescence-based high-throughput DNA polymerase assay (molecular beacon), primary screen and dose-response
Assay type: biochemical
Conditions: for DNA Pol: 90 min, 10 µM; for % inhibition apPOL 180' 2.5 / % inhibition apPOL 180' 5 / % inhibition apPOL 180' 10 / % inhibition apPOL 180' 20 / % inhibition apPOL 180' 40 / % inhibition apPOL 180' 80: read at 180'
How it was run: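 Single-point screening used 10 µM compound with 20 nM polymerase, 20 nM hairpin substrate and 6 µM dNTPs for 90 min at 25 °C. Confirmatory titrations (2.5–80 µM) followed fluorescence at three times, and IC50 was derived from a fit including a cooperativity term n.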

[1] = first dose-response, concentration 2.5
[2] = first dose-response, concentration 10
[3] = first dose-response, concentration 20

Sequence of P. falciparum apicoplast DNA polymerase (Pf-apPOL) (Q8ILY1 entry or part of it): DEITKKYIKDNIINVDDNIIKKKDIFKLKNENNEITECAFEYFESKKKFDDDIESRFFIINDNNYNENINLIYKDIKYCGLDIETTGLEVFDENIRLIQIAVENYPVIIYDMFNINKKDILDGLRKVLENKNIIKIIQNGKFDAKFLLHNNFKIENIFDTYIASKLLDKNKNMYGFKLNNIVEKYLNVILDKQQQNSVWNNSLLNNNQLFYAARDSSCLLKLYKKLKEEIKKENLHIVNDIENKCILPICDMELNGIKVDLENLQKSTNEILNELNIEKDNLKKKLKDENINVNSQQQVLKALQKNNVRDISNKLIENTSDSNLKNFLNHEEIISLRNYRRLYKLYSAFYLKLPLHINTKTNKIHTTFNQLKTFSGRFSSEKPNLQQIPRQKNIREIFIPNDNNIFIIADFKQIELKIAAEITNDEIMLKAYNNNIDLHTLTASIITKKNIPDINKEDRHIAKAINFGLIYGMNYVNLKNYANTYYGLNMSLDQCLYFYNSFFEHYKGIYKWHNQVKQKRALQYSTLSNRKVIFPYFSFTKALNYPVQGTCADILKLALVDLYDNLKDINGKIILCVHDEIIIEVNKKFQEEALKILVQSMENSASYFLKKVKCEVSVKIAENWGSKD

For COc1ccc(C2CC(c3ccc(Cl)cc3Cl)Nc3nc(N)nn32)cc1OC (stereo not drawn) [Molecule 43, COc1cc(ccc1OC)C1CC(Nc2n1nc(n2)N)c1ccc(cc1Cl)Cl], the “DNA Pol” value (186 hits, DNA Pol (screen value), unit not given) was 50, the “DNA Pol” value ('DNA Pol' (screen value), unit not given) was 50 and the “% inhibition Apo pol 10' 2.5” value (DRC-1, read at 10', concentration 2.5) was 35%. For the same compound, the “% inhibition Apo pol 10' 5” value (DRC-1, read at 10', concentration 5) was 39%, the “% inhibition Apo pol 10' 10” value (DRC-1, read at 10', concentration 10) was 50% and the “% inhibition Apo pol 10' 20” value (DRC-1, read at 10', concentration 20) was 56%. For the same compound, the “% inhibition Apo pol 10' 40” value (DRC-1, read at 10', concentration 40) was 63%, the “% inhibition Apo pol 10' 80” value (DRC-1, read at 10', concentration 80) was 71% and the “% inhibition Apol 90' 2.5” value (DRC-1, read at 90', concentration 2.5) was 28%. The “% inhibition Apol 90' 5” value (DRC-1, read at 90', concentration 5) was 32%, the “% inhibition Apol 90' 10” value (DRC-1, read at 90', concentration 10) was 43% and the “% inhibition Apol 90' 20” value (DRC-1, read at 90', concentration 20) was 51%. For the same compound, the “% inhibition Apol 90' 40” value (DRC-1, read at 90', concentration 40) was 58%, the “% inhibition Apol 90' 80” value (DRC-1, read at 90', concentration 80) was 67% and the “% inhibition apPOL 180' 2.5” value (DRC-1, concentration 2.5) was 22%. For the same compound, the “% inhibition apPOL 180' 5” value (DRC-1, concentration 5) was 25%, the “% inhibition apPOL 180' 10” value (DRC-1, concentration 10) was 35% and the “% inhibition apPOL 180' 20” value (DRC-1, concentration 20) was 43%. For the same compound, the “% inhibition apPOL 180' 40” value (DRC-1, concentration 40) was 52%, the “% inhibition apPOL 180' 80” value (DRC-1, concentration 80) was 62% and the “% inhibition Apo pol 5'” value (DRC-2, concentration 5) was 22%. For the same compound, the “% inhibition Apo pol 5'” value (DRC-2, concentration 10) was 28%, the “% inhibition Apo pol 5'” value (DRC-2, concentration 20) was 30% and the “% inhibition Apo pol 5'” value (DRC-2, concentration 40) was 39%. The “% inhibition Apol 40'” value (DRC-2, concentration 2.5) was 26%, the “% inhibition Apol 40'” value (DRC-2, concentration 5) was 29% and the “% inhibition Apol 40'” value (DRC-2, concentration 20) was 42%. For the same compound, the “% inhibition Apol 40'” value (DRC-2, concentration 80) was 51%, the “% inhibition ApPOL 90'” value (DRC-2, concentration 2.5) was 26% and the “% inhibition ApPOL 90'” value (DRC-2, concentration 5) was 29%. For the same compound, the “% inhibition ApPOL 90'” value (DRC-2, concentration 20) was 42%, the “% inhibition ApPOL 90'” value (DRC-2, concentration 40) was 50% and the “% inhibition ApPOL 90'” value (DRC-2, concentration 80) was 52%. For the same compound, the “% inhibition apPOL 180'” value (DRC-2, concentration 10) was 30%, the “% inhibition apPOL 180'” value (DRC-2, concentration 20) was 35% and the “% inhibition apPOL 180'” value (DRC-2, concentration 40) was 43%. The “% inhibition Apo pol 5' 2.5” value (DRC-2, read at 5', concentration 2.5) was 23%, the “% inhibition Apo pol 5' 5” value (DRC-2, read at 5', concentration 5) was 22% and the “% inhibition Apo pol 5' 10” value (DRC-2, read at 5', concentration 10) was 28%. The “% inhibition Apo pol 5' 20” value (DRC-2, read at 5', concentration 20) was 30%, the “% inhibition Apo pol 5' 40” value (DRC-2, read at 5', concentration 40) was 39% and the “% inhibition Apo pol 5' 80” value (DRC-2, read at 5', concentration 80) was 38%. The “% inhibition Apol 40' 2.5” value (DRC-2, read at 40', concentration 2.5) was 26%, the “% inhibition Apol 40' 5” value (DRC-2, read at 40', concentration 5) was 29% and the “% inhibition Apol 40' 10” value (DRC-2, read at 40', concentration 10) was 36%. The “% inhibition Apol 40' 20” value (DRC-2, read at 40', concentration 20) was 42%, the “% inhibition Apol 40' 40” value (DRC-2, read at 40', concentration 40) was 49% and the “% inhibition Apol 40' 80” value (DRC-2, read at 40', concentration 80) was 51%. The “% inhibition ApPOL 90' 2.5” value (DRC-2, read at 90', concentration 2.5) was 26%, the “% inhibition ApPOL 90' 5” value (DRC-2, read at 90', concentration 5) was 29% and the “% inhibition ApPOL 90' 10” value (DRC-2, read at 90', concentration 10) was 37%. The “% inhibition ApPOL 90' 20” value (DRC-2, read at 90', concentration 20) was 42%, the “% inhibition ApPOL 90' 40” value (DRC-2, read at 90', concentration 40) was 50% and the “% inhibition ApPOL 90' 80” value (DRC-2, read at 90', concentration 80) was 52%. The “% inhibition apPOL 180' 2.5” value (DRC-2, concentration 2.5) was 18%, the “% inhibition apPOL 180' 5” value (DRC-2, concentration 5) was 21% and the “% inhibition apPOL 180' 10” value (DRC-2, concentration 10) was 30%. The “% inhibition apPOL 180' 20” value (DRC-2, concentration 20) was 35%, the “% inhibition apPOL 180' 40” value (DRC-2, concentration 40) was 43% and the “% inhibition apPOL 180' 80” value (DRC-2, concentration 80) was 46%. The “% inhibition Apo pol 10'” value [1] was 35%, the “% inhibition Apo pol 10'” value (first dose-response, concentration 5) was 39% and the “% inhibition Apo pol 10'” value [2] was 50%. For the same compound, the “% inhibition Apol 90'” value [1] was 28%, the “% inhibition Apol 90'” value [2] was 43% and the “% inhibition Apol 90'” value [3] was 51%. For the same compound, the “% inhibition apPOL 180'” value [1] was 22%, the “% inhibition apPOL 180'” value [2] was 35% and the “% inhibition apPOL 180'” value [3] was 43%. For the same compound, the “% inhibition apPOL 180'” value (first dose-response, concentration 40) was 52%.
With O=C(Cc1cc(=O)[nH]c(SCc2ccccc2)n1)Nc1ccc2c(c1)OCO2 [Molecule 46, O=C(Cc1cc(=O)[nH]c(n1)SCc1ccccc1)Nc1ccc2c(c1)OCO2] the “DNA Pol” value ("DNA Pol" of the 186 hits list (screen value)) was 35, the “% inhibition Apo pol 10'” value (DRC-1, concentration 2.5) was -0.9773% and the “% inhibition Apo pol 10'” value (DRC-1, concentration 5) was 2.643%. For the same compound, the “% inhibition Apo pol 10'” value (DRC-1, concentration 10) was 32.2663%, the “% inhibition Apo pol 10'” value (DRC-1, concentration 20) was 58.1636% and the “% inhibition Apo pol 10'” value (DRC-1, concentration 40) was 83.7049%. For the same compound, the “% inhibition Apo pol 10'” value (DRC-1, concentration 80) was 86.7652%, the “% inhibition Apol 90'” value (DRC-1, concentration 2.5) was -4.834% and the “% inhibition Apol 90'” value (DRC-1, concentration 5) was -3.621%. The “% inhibition Apol 90'” value (DRC-1, concentration 10) was 17.8668%, the “% inhibition Apol 90'” value (DRC-1, concentration 20) was 43.05% and the “% inhibition Apol 90'” value (DRC-1, concentration 40) was 73.6983%. For the same compound, the “% inhibition Apol 90'” value (DRC-1, concentration 80) was 82.3218%, the “% inhibition apPOL 180'” value (DRC-1, concentration 2.5) was -11.1217% and the “% inhibition apPOL 180'” value (DRC-1, concentration 5) was -9.027%. The “% inhibition apPOL 180'” value (DRC-1, concentration 10) was 5.286%, the “% inhibition apPOL 180'” value (DRC-1, concentration 20) was 25.3173% and the “% inhibition apPOL 180'” value (DRC-1, concentration 40) was 61.8193%. For the same compound, the “% inhibition apPOL 180'” value (DRC-1, concentration 80) was 77.2818%, the “% inhibition Apo pol 5'” value (DRC-2, concentration 2.5) was -0.743% and the “% inhibition Apo pol 5'” value (DRC-2, concentration 5) was -0.197%. The “% inhibition Apo pol 5'” value (DRC-2, concentration 10) was 23%, the “% inhibition Apo pol 5'” value (DRC-2, concentration 20) was 29% and the “% inhibition Apo pol 5'” value (DRC-2, concentration 40) was 27%. The “% inhibition Apo pol 5'” value (DRC-2, concentration 80) was 20%, the “% inhibition Apol 40'” value (DRC-2, concentration 2.5) was -1% and the “% inhibition Apol 40'” value (DRC-2, concentration 5) was 0.92%. The “% inhibition Apol 40'” value (DRC-2, concentration 10) was 30%, the “% inhibition Apol 40'” value (DRC-2, concentration 20) was 47% and the “% inhibition Apol 40'” value (DRC-2, concentration 40) was 55%. The “% inhibition Apol 40'” value (DRC-2, concentration 80) was 53%, the “% inhibition ApPOL 90'” value (DRC-2, concentration 2.5) was -1% and the “% inhibition ApPOL 90'” value (DRC-2, concentration 5) was -0.186%. The “% inhibition ApPOL 90'” value (DRC-2, concentration 10) was 27%, the “% inhibition ApPOL 90'” value (DRC-2, concentration 20) was 49% and the “% inhibition ApPOL 90'” value (DRC-2, concentration 40) was 60%. The “% inhibition ApPOL 90'” value (DRC-2, concentration 80) was 61%, the “% inhibition apPOL 180'” value (DRC-2, concentration 2.5) was -5.33% and the “% inhibition apPOL 180'” value (DRC-2, concentration 5) was -9%. The “% inhibition apPOL 180'” value (DRC-2, concentration 10) was 17%, the “% inhibition apPOL 180'” value (DRC-2, concentration 20) was 41% and the “% inhibition apPOL 180'” value (DRC-2, concentration 40) was 62%. The “% inhibition apPOL 180'” value (DRC-2, concentration 80) was 67% and the “DNA Pol” value (primary screen value, DNA Pol) was 35.
